Where a name gives a salt, the structure may show the parent alone.
Key:
[1] = system: L. donovani (MHOM/IN/00/DEVI) promastigotes; assay: In vitro antileishmanial activity on promastigotes, MTT assay; format: cell-based; conditions: Leishmania donovani, 72 h incubation, mean +/- SD of three independent experiments
Description: L. donovani (MHOM/IN/00/DEVI) used in this study was provided by the CNR Leishmania (Montpellier, France). The effects of the tested compounds on the growth of L. donovani (MHOM/IN/00/DEVI) promastigotes were assessed by MTT assay. Briefly, promastigotes in log-phase in Schneider’s medium supplemented with 20% fetal calf serum (FCS), 2 mM L-glutamine and antibiotics (100 U/mL penicillin and 100 µg/mL streptomycin), were incubated at an average density of 10^6 parasites/mL in sterile 96-well plates with various concentrations of compounds previously dissolved in DMSO (final concentration less than 0.5% v/v), in duplicate. […] Duplicate assays were performed for each sample. After the 72 h incubation period at 27 °C, parasite metabolic activity was determined. Each well was microscopically examined for precipitate formation. To each well was added 10 µL of 10 mg/mL MTT [3-(4,5-dimethylthiazol-2-yl)-2,5-diphenyltetrazolium bromide)] solution followed by 4 h incubation time. The enzyme reaction was stopped by addition of 100 µL of 50% isopropanol/10% sodium dodecyl sulfate. Plates were vigorously shaken (300 rpm) for 10 min, and the absorbance was measured at 570 nm with 630 nm as reference wavelength in a BIOTEK ELx808 Absorbance Microplate Reader (Agilent Technologies, Les Ulis, France). […] IC50 of the parasite’s growth (half maximal inhibitory concentration or IC50 values) were then calculated from the obtained experimental results using a previously described regression program. IC50 values were calculated from three independent experiments.

[2] = system: Plasmodium falciparum CQ-resistant strain W2; assay: In vitro antiplasmodial activity, SYBR Green I fluorescence-based method, strain W2; format: cell-based; conditions: CQ-resistant strain W2, 48 h incubation, mean of three independent experiments, read-out: P. falciparum Strains IC50 Values W2
Description: (§1) The in vitro antiplasmodial activities were tested over concentrations ranging from 39 nM to 40 µM against culture-adapted Plasmodium falciparum reference strains 3D7 and W2. […] These two strains are obtained from the collection of the National Museum of Natural History (Paris, France). The parasites were cultivated in RPMI medium (Sigma Aldrich, Lyon, France) supplemented with 0.5% Albumax I (Life Technologies Corporation, Paisley, UK), hypoxanthine (Sigma Aldrich), and gentamicin (Sigma Aldrich) with human erythrocytes and were incubated at 37 °C in a candle jar, as described previously. The P. falciparum drug susceptibility test was carried out in 96-well flat bottom sterile plates in a final volume of 250 µL. After 48 h incubation period with the drugs, quantities of DNA in treated and control cultures of parasites in human erythrocytes were quantified using the SYBR Green I (Sigma Aldrich) fluorescence-based method. Briefly, after incubation, plates were frozen at -20 °C until use. Plates were then thawed for 2 h at room temperature, and 100 µL of each homogenized culture was transferred to a well of a 96-well flat bottom sterile black plate (Nunc, Inc.) that contained 100 µL of the SYBR Green I lysis buffer (2xSYBR Green, 20 mM Tris base pH 7.5, 5 mM EDTA, 0.008% w/v saponin, 0.08% w/v Triton X-100). […] Plates were incubated for 1 h at room temperature and then read on a fluorescence plate reader (Tecan, Austria) using excitation and emission wavelengths of 485 and 535 nm, respectively.

[3] = system: Plasmodium falciparum CQ-sensitive strain 3D7; assay: In vitro antiplasmodial activity, SYBR Green I fluorescence-based method, strain 3D7; format: cell-based; conditions: CQ-sensitive strain 3D7, 48 h incubation, mean of three independent experiments, read-out: P. falciparum Strains IC50 Values 3D7
Description: as §1

[4] = system: T. brucei brucei AnTat 1.9; assay: In vitro antitrypanosomal activity, Alamar Blue assay; format: cell-based, Trypanosoma brucei brucei; conditions: Trypanosoma brucei, slender bloodstream trypomastigotes, AnTat 1.9 strain; mean +/- SD of three independent experiments; read-out: Trypanosoma brucei brucei IC50 Values Trypanos Antat 1.9
Description: The effects of the tested compounds on the growth of T. brucei brucei were assessed using an Alamar Blue® assay described by Räz et al. T. brucei brucei AnTat 1.9 ([…], Belgium) was cultured in MEM with Earle's salts, supplemented according to the protocol of Baltz et al. […] All doses were tested in duplicate. Appropriate controls treated with solvents 0.9% NaCl or DMSO or with suramin, pentamidine, eflornithine, and fexinidazole (reference drugs purchased from Sigma Aldrich and Fluorochem, UK) were added to each set of experiments. After 69 h incubation period at 37 °C, 10 μL of the viability marker Alamar Blue (Fisher) was added to each well, and the plates were incubated for 5 h. The plates were read in a PerkinElmer ENSPIRE (Germany) microplate reader using an excitation wavelength of 530 nm and an emission wavelength of 590 nm.

[5] = system: Plasmodium telomeric sequence FPf1T G-quadruplex; assay: FRET melting assay, FPf1T; format: binding, Plasmodium falciparum; conditions: compound 2 μM, oligonucleotide 0.2 μM, K+ conditions
Description: (§2) These were performed with dual-labeled oligonucleotides mimicking the Plasmodium telomeric sequences FPf1T [FAM-5′(GGGTTTA)3-GGG3′-TAMRA] and FPf8T [FAM-5′(GGGTTCA)3GGG3′-TAMRA], the Trypanosoma 9 and 11 chromosomic sequence FTrypBT (also named FEBR1T) [FAM-5′[…]3′-TAMRA], the human telomeric sequence F21T [FAM-(GGGTTA)3-GGG3′-TAMRA] and the human duplex sequence FdxT [FAM5′-[…]-hexaethyleneglycol-[…]3′-TAMRA] [27, 31, 47]. The oligonucleotides were pre-folded in 10 mM lithium cacodylate buffer (pH 7.2), with 10 mM KCl and 90 mM LiCl (K^+ condition). The FAM emissions were recorded at 516 nm using a 492-nm excitation wavelength in the absence and presence of a single compound as a function of temperature (25 to 95 °C) in 96-well microplates using a Stratagene MX3000P real-time PCR device at a rate of 1 °C∙min-1. Data were normalized between 0 and 1, and the required temperature for half-denaturation of oligonucleotides corresponding to the emission value of 0.5 was taken as the Tm. Each experiment was performed in duplicate with 0.2 µM of labeled oligonucleotide and 2 µM of compound under K^+ condition. For each compound, three independent experiments were carried out.

[6] = system: Plasmodium telomeric sequence FPf8T G-quadruplex; assay: FRET melting assay, FPf8T; format: binding, Plasmodium falciparum; conditions: compound 2 μM, oligonucleotide 0.2 μM, K+ conditions
Description: as §2

[7] = system: Trypanosoma 9 and 11 chromosomic sequence FTrypBT (FEBR1T) G-quadruplex; assay: FRET melting assay, FtrypBT; format: binding, Trypanosoma brucei brucei; conditions: compound 2 μM, oligonucleotide 0.2 μM, K+ conditions
Description: as §2

[8] = system: human telomeric sequence F21T G-quadruplex; assay: FRET melting assay, F21T; format: binding; conditions: compound 2 μM, oligonucleotide 0.2 μM, K+ conditions
Description: as §2

[9] = system: human duplex sequence FdxT; assay: FRET melting assay, duplex control FdxT; format: binding; conditions: compound 2 μM, oligonucleotide 0.2 μM, K+ conditions
Description: as §2

Q: For CN(C)CCNCc1cc(-c2ccccc2)c2ccc3c(-c4ccccc4)cc(CNCCN(C)C)nc3c2n1 (as salt: ammonium) [Compound 1a, 2,9-Bis[(2-dimethylaminoethyl)aminomethyl]-4,7-diphenyl-1,10-phenanthroline], which melting point is on record?
A: The melting point was 179 to 181 °C.

Q: For CN(C)CCCNCc1cc(-c2ccccc2)c2ccc3c(-c4ccccc4)cc(CNCCCN(C)C)nc3c2n1 (as salt: ammonium) [Compound 1b, 2,9-Bis[(3-dimethylaminopropyl)aminomethyl]-4,7-diphenyl-1,10-phenanthroline], which melting point is on record?
A: Its melting point is 161 to 163 °C.

Q: With CN(C)CCCCNCc1cc(-c2ccccc2)c2ccc3c(-c4ccccc4)cc(CNCCCCN(C)C)nc3c2n1 (as salt: ammonium) [Compound 1c, 2,9-Bis[(4-dimethylaminobutyl)aminomethyl]-4,7-diphenyl-1,10-phenanthroline] as the molecule, how does the melting point read?
A: Its melting point is 111 to 113 °C.

Q: For CN(C)CCCCCNCc1cc(-c2ccccc2)c2ccc3c(-c4ccccc4)cc(CNCCCCCN(C)C)nc3c2n1 (as salt: ammonium) [Compound 1d, 2,9-Bis[(5-dimethylaminopentyl)aminomethyl]-4,7-diphenyl-1,10-phenanthroline], which melting point is on record?
A: Its melting point is 119 to 121 °C.

Q: For CN1CCN(CCNCc2cc(-c3ccccc3)c3ccc4c(-c5ccccc5)cc(CNCCN5CCN(C)CC5)nc4c3n2)CC1 (as salt: ammonium) [Compound 1e], which melting point is on record?
A: The melting point was 185 to 187 °C.

Q: Which melting point does the source give for CN1CCN(CCCNCc2cc(-c3ccccc3)c3ccc4c(-c5ccccc5)cc(CNCCCN5CCN(C)CC5)nc4c3n2)CC1 (as salt: ammonium) [Compound 1f] here?
A: Its melting point is 205 to 207 °C.

Q: With CN1CCN(CCCCNCc2cc(-c3ccccc3)c3ccc4c(-c5ccccc5)cc(CNCCCCN5CCN(C)CC5)nc4c3n2)CC1 (as salt: ammonium) [Compound 1g] as the molecule, how does the melting point read?
A: Its melting point is 207 to 209 °C.

Q: With c1ccc(-c2cc(CNCCN3CCOCC3)nc3c2ccc2c(-c4ccccc4)cc(CNCCN4CCOCC4)nc23)cc1 (as salt: ammonium) [Compound 1h] as the molecule, how does the melting point read?
A: The melting point was 194 to 196 °C.

Q: With c1ccc(-c2cc(CNCCCN3CCOCC3)nc3c2ccc2c(-c4ccccc4)cc(CNCCCN4CCOCC4)nc23)cc1 (as salt: ammonium) [Compound 1i] as the molecule, how does the melting point read?
A: The melting point was 174 to 176 °C.

Q: Which melting point does the source give for c1ccc(-c2cc(CNCCN3CCCCC3)nc3c2ccc2c(-c4ccccc4)cc(CNCCN4CCCCC4)nc23)cc1 (as salt: ammonium) [Compound 1j] here?
A: The melting point was 192 to 194 °C.

Q: Which melting point does the source give for c1ccc(-c2cc(CNCCCN3CCCCC3)nc3c2ccc2c(-c4ccccc4)cc(CNCCCN4CCCCC4)nc23)cc1 (as salt: ammonium) [Compound 1k] here?
A: Its melting point is 141 to 143 °C.

Q: With c1ccc(-c2cc(CNCCCN3CCCC3)nc3c2ccc2c(-c4ccccc4)cc(CNCCCN4CCCC4)nc23)cc1 (as salt: ammonium) [Compound 1l] as the molecule, how does the melting point read?
A: Its melting point is 145 to 147 °C.

Q: With c1ccc(-c2cc(CNCCc3ccccn3)nc3c2ccc2c(-c4ccccc4)cc(CNCCc4ccccn4)nc23)cc1 (as salt: ammonium) [Compound 1m] as the molecule, how does the melting point read?
A: Its melting point is 165 to 167 °C.

Q: With c1ccc(-c2cc(CNCCc3cccnc3)nc3c2ccc2c(-c4ccccc4)cc(CNCCc4cccnc4)nc23)cc1 (as salt: ammonium) [Compound 1n] as the molecule, how does the melting point read?
A: The melting point was 164 to 166 °C.

Q: Which melting point does the source give for c1ccc(-c2cc(CNCCc3ccncc3)nc3c2ccc2c(-c4ccccc4)cc(CNCCc4ccncc4)nc23)cc1 (as salt: ammonium) [Compound 1o] here?
A: Its melting point is 147 to 149 °C.

Q: With c1ccc(-c2cc(CNCCCc3ccncc3)nc3c2ccc2c(-c4ccccc4)cc(CNCCCc4ccncc4)nc23)cc1 (as salt: ammonium) [Compound 1p] as the molecule, how does the melting point read?
A: Its melting point is 99 to 101 °C.

Q: With C[C@@H]1[C@H](O)[C@@H](C)/C=C/C=C/C=C/C=C/C=C/C=C/C=C/[C@H](O[C@@H]2O[C@H](C)[C@@H](O)[C@H](N)[C@@H]2O)C[C@@H]2O[C@](O)(C[C@@H](O)C[C@@H](O)[C@H](O)CC[C@@H](O)C[C@@H](O)CC(=O)O[C@H]1C)C[C@H](O)[C@H]2C(=O)O [Amphotericin B, reference compound] as the molecule, how does the IC50 [1] read?
A: The IC50 was 100 ± 40 nM.

Q: Which results are given for CN(C)CCNCc1cc(-c2ccccc2)c2ccc3c(-c4ccccc4)cc(CNCCN(C)C)nc3c2n1 [Compound 1a, 2,9-Bis[(2-dimethylaminoethyl)aminomethyl]-4,7-diphenyl-1,10-phenanthroline]?
A: IC50 [2]: 1000 ± 340 nM; IC50 [3]: 1800 ± 670 nM; IC50 [1]: > 12500 nM; IC50 [4]: 670 ± 30 nM; ΔTm FPf1T [5]: 1.8 °C; ΔTm FPf8T [6]: 1.6 °C; ΔTm FtrypBT [7]: 1.9 °C; ΔTm F21T [8]: 1.8 °C; ΔTm FdxT [9]: −0.3 °C

Q: With CSc1ccc(OCc2ncc([N+](=O)[O-])n2C)cc1 [Fexinidazole, reference compound] as the molecule, how does the IC50 [4] read?
A: The IC50 was 590 ± 39 nM.

Q: Which IC50 [4] does the source give for Cc1ccc(C(=O)Nc2ccc(S(=O)(=O)O)c3cc(S(=O)(=O)O)cc(S(=O)(=O)O)c23)cc1NC(=O)c1cccc(NC(=O)Nc2cccc(C(=O)Nc3cc(C(=O)Nc4ccc(S(=O)(=O)O)c5cc(S(=O)(=O)O)cc(S(=O)(=O)O)c45)ccc3C)c2)c1 [Suramine, reference compound] here?
A: The IC50 was 30 ± 3 nM.

Source: article PMC9699089 (Pathogens, 2022)
